{"source": "patent US6362211B1", "about": "“Polycyclic indanylimidazoles with alpha2 adrenergic activity” (Orion Corporation, priority 2000, dated 2002)", "data": [{"test_system": "Alpha2 Adrenoceptors (alpha2AR)", "experiment": "Antagonist activity on alpha2 adrenoceptors in rat vas deferens in vitro (electrically evoked twitch response)", "format": "cell-based", "conditions": "isolated rat vas deferens, field stimulation; antagonist given at least five minutes before alpha2AR agonist", "experimental": "Antagonist Activity on Alpha2 Adrenoceptors (alpha2AR) in Rat Vas Deferens in Vitro\nRats were killed by CO2-suffocation. Vas deferentia were dissected out and both prostatic halves were removed to tissue chambers containing Krebs-solution of the following composition (mM): NaCl 118, KCl 4.7, CaCl2 2.5, KH2PO4 1.2, MgSO4 0.6, NaHCO3 25, glucose 11.1, aerated by 5% carbogen, temperature 37° C., pH 7.4. Propranolol […] and desipramine […] were added to prevent the possible effects on […] receptors and to prevent re-uptake of released norepinephrine, respectively. Preparations were tied to the bottom hooks of the incubation chambers and the to isometric force-displacement transducers above. Electrical stimulation was started after the equilibrium period/5 minutes under a resting tension of 0.5 g) by introducing field stimulation with the following parameters: twin-pulses, voltage 70 V, frequency 0.2 Hz, delay 5 ms, duration 2 ms. […] Inhibition of the electrically evoked contractions was measured as the response to alpha2AR agonists. Antagonist was administered into the incubation medium at least five minutes before agonist. Means±SEM of percentage inhibition were calculated in the absence and in the presence of antagonist and expressed as dose-response curves. In order to express the antagonist potency, pA2-value was calculated.", "values": [{"compound": "C=C1CCC2(c3c[nH]cn3)Cc3ccccc3C12", "note": "(stereo not shown) [2(a), 4-(3-Methylene-2,3,3a,8-tetrahydro-1H-cyclopenta[a]inden-8a-yl)-1H-imidazole]", "Vas deferens Alpha2 antagonistic activity, pA2": "pA2 = 7.8"}, {"compound": "c1ccc2c(c1)CC1(c3c[nH]cn3)CCCCC21", "note": "(stereo not shown) [3(i), 4-(4b,5,6,7,8,9-Hexahydrofluoren-8a-yl)-1H-imidazole]", "Vas deferens Alpha2 antagonistic activity, pA2": "pA2 = 8.2"}, {"compound": "c1ccc2c(c1)CC1(c3c[nH]cn3)CCCC21", "note": "(stereo not shown) [Example 1(e), 4-(2,3,3a,8-Tetrahydro-1H-cyclopenta[a]inden-8a-yl)-1H-imidazole]", "Vas deferens Alpha2 antagonistic activity, pA2": "pA2 = 8.4"}, {"compound": "CC1CCC2(c3c[nH]cn3)Cc3ccccc3C12", "note": "(stereo not shown) [Example 2(b), 4-(3-Methyl-2,3,3a,8-tetrahydro-1H-cyclopenta[a]inden-8a-yl)-1H-imidazole]", "Vas deferens Alpha2 antagonistic activity, pA2": "pA2 = 7.4"}, {"compound": "Fc1ccc2c(c1)C1CCCCC1(c1c[nH]cn1)C2", "note": "(stereo not shown) [Example 4, 4-(3-Fluoro-4b,5,6,7,8,9-hexahydrofluoren-8a-yl)-1H-imidazole]", "Vas deferens Alpha2 antagonistic activity, pA2": "pA2 = 7.4"}, {"compound": "COc1ccc2c(c1)C1CCCCC1(c1c[nH]cn1)C2", "note": "(stereo not shown) [Example 5(a), 4-(3-Methoxy-4b,5,6,7,8,9-hexahydrofluoren-8a-yl)-1H-imidazole]", "Vas deferens Alpha2 antagonistic activity, pA2": "pA2 = 6.9"}, {"compound": "Oc1ccc2c(c1)C1CCCCC1(c1c[nH]cn1)C2", "note": "(stereo not shown) [Example 5(b), 8a-(1H-Imidazol-4-yl)-5,6,7,8,8a,9-hexahydro-4bH-fluoren-3-ol]", "Vas deferens Alpha2 antagonistic activity, pA2": "pA2 = 7.7"}, {"compound": "OCCOCCOc1ccc2c(c1)C1CCCCC1(c1c[nH]cn1)C2", "note": "(stereo not shown) [Example 6, 2-{2-[8a-(1H-Imidazol-4-yl)-5,6,7,8,8a,9-hexahydro-4bH-fluoren-3-yloxy]-ethoxy}-ethanol]", "Vas deferens Alpha2 antagonistic activity, pA2": "pA2 = 6.0"}, {"compound": "c1ccc2c(c1)CC1(c3c[nH]cn3)C3CCC(CC3)C21", "note": "(stereo not shown) [Example 7(f), 4-(5,8-Ethano-4b,5,6,7,8,9-hexahydro-fluoren-8a-yl)-1H-imidazole]", "Vas deferens Alpha2 antagonistic activity, pA2": "pA2 = 5.3"}, {"compound": "c1ccc2c(c1)CC1(c3c[nH]cn3)Cc3ccccc3C21", "note": "(stereo not shown) [Example 8, 4-(4b,10-Dihydro-9H-indeno[1,2-a]inden-9a-yl)-1H-imidazole]", "Vas deferens Alpha2 antagonistic activity, pA2": "pA2 = 7.4"}]}]}
